Counter-ions that a name gives are not always drawn.
Assays:
[1] = test system: rats subjected to sciatic nerve CCI; experiment: Chronic constrictive injury (CCI) of the sciatic nerve, thermal hyperalgesia, paw withdrawal test; type: in vivo, rat
Method: The chronic constrictive injury (CCI) was induced by sciatic nerve ligation according to the method described by Bennett and Xie [Bennett. G. J.; Xie, Y. K. Pain […], 33: 87-107]. Male Wistar rats, weighing 180-240 g, were anesthetized with a mixture of ketamine and xylazine (60 mg/kg and 5 mg/kg, respectively), intraperitoneally. Through an incision of 0.5 cm (parallel and spaced about 10 mm from the left femur) the sciatic nerve was identified. With a thin glass rod, a small segment of sciatic nerve was exposed and four loosely ligatures were placed around the sciatic nerve spaced 1 mm each other using a 3-0 silk suture thread. After the procedure, the skin was sutured and a topical antiseptic was applied.
To assess animal behavior in response to hyperalgesic phenomenon resulting from sciatic nerve chronic constrictive injury, the model described by Hargreaves and Dubner was used [Hargreaves K., Dubner R., Brown F., Flores C., Joris J. Pain 1988, 32 (1): 77-88]. In this regard, paw withdrawal in response to a painful phenomenon was performed. This is a nociceptive test which involves a peripheral short thermal stimulus induced by the radiant heat of an incandescent lamp bulb. […] Radiant heat has an advantage over the other modes of thermal stimulation in that it produces no tactile stimulus. [Le Bars D., Gozariu M., Cadden S. W. Pharmacology Reviews, 2001, 53 (4), 597-652]. In this assay, a plantar test analgesimeter (ITC Life Science Inc, USA) was used.
Animals were placed in transparent acrylic boxes with tempered glass pane floor for 40 minutes to acclimate. After this period, the radiant heat was applied to the footpads of animals's hindpaws until they make the movement of paw withdrawal. The paw withdrawal latency was defined as the time recorded from the beginning of the radiant heat stimulus and the paw withdrawal. For each paw, three latency records were made, and the average value was used to define the paw withdrawal time control The maximum time that each animal was exposed to the radiant heat source (cut-off) was defined as three times the paw withdrawal time control, to avoid tissue injuries in animals's paws.
The day before surgery, rats, defined as “control before surgery”, were placed in acrylic boxes to the paw withdrawal test. On the 7th day after the surgery (CCI), the paw withdrawal test was again performed in order to verify neuropathic pain has been effectively developed in the left paw—defined as “post-surgery control.”
The paw withdrawal test was assessed during the days 1, 3, and 7 of the treatment (with amitriptyline hydrochloride or the compounds of examples of the instant invention) and on days 1, 3, and 7 after treatment interruption.
(§1) Differences were considered significant when p<0.05.

Swiss-type male mice = experiment: RotaRod performance test, motor coordination
Method: The assessment of motor coordination in mice, by the rotarod performance test, was carried out to detect any possible sedative or muscle relaxant effect caused by the compounds of the present invention, previously tested in acute and neuropathic pain models. This test was carried out according to the method of described by Dunham & Miya and animal motor coordination was evaluated using RotaRod apparatus [Dunham M. S. & Miya. R. T. (1957). J. Amer. Pharmac. Assoc. Sci. Edit. 1957, 46, 208-209].
The RotaRod apparatus (Model 412 EFF, Insight Equipements, Brazil) is a device that measures motor coordination and thus evaluates balance alterations in mice. The apparatus consists of an acrylic box splited into four compartments with a rotational cylinder among them. The cylinder rotates at constant speed driven by a motor and regulated to the constant speed mode of 5-37 revolutions per minute (rpm). In this study the speed was set up to 9 rpm.
To remain on the rotational cylinder, the animal needs to move around, so that the motor coordination can be quantified. The four compartments have drop detection system, through the impact, a microprocessor circuit, for timing the permanence of the animal at the compartment, and for counting the number of falls.
The day before the test, Swiss-type male mice (19-25 g) were placed on the rotational cylinder, set up to the constant speed mode of 9 rpm for adaptation and learning. A group of 10 mice were used for each tested compound, and the total period spent on the rotational cylinder (in seconds) was recorded for a period of 180 seconds (cut off time) and it was accept a maximum of three falls for each animal. Motor coordination was assessed at times 0 (before treatment), 15, 30, 60 and 120 minutes after compounds administration at a dose of 32.25 μmol/kg.
All compounds were administered intraperitoneally (ip).
The Student's t-test was also used to compare means between two experimental groups. Differences were considered significant when p<0.05.

rats subjected to SNL [2] = experiment: Spinal nerve ligation (SNL) L5 model, thermal hyperalgesia; type: in vivo, rat
Method: (§2) This experimental model was proposed by Kim and Chung [Kim, S. H.; Chung, J. M. Pain 1992, 50: 355-363] and consists of ligation of spinal nerves. Male Wistar rats, 180-220 g, were anesthetized with a mixture of ketamine and xylazine (60 mg/kg and 5 mg/kg, respectively) intraperitoneally. After the dorsal region asepsy, an incision was made between L5 and S1. The L6 transverse process was removed for locating the nerves L4 and L5, which were carefully isolated, and tight ligation of the L5 nerve with 6.0 silk thread was made, interrupting flow of the axon of the nerve. After this procedure, para-spinal muscles and skin were sutured, and then a topical antiseptic was applied. False operated animals (sham) were subjected to the same procedure, however the spinal nerve was not ligated.
This method aims to evaluate the animal behavior in response to hyperalgesic phenomenon resulting from the injury induced by the ligament of spinal nerve (L5). In this regard, paw withdrawal in response to thermal stimulus was used, and the thermal stimulus was induced by the radiant heat of an incandescent lamp bulb. The paw withdrawal test was performed as described for the assessment of thermal hyperalgesia in the sciatic nerve chronic constrictive injury model.
as §1
(§3) The treatment started on the 7th day after surgery. Compounds were diluted in water or DMSO and administered through intraperitoneal route on daily basis, during 7 days, at a dose of […]. The effectiveness of tested compounds was assessed on days 1, 3, and 7 days after treatment, always before the next administration of the compound. Latencies were also assessed on days 1, 3, and 7 after treatment interruption.

rats subjected to SNL [3] = experiment: Spinal nerve ligation (SNL) L5 model, mechanical allodynia (digital Von Frey); type: in vivo, rat; conditions: after 7 days of treatment, 32.25 μmol/kg ip
Method: as §2
To evaluate the development of mechanical allodynia, digital analgesimeter (Model EFF301; Insight Equipments), digitalized version coupled to a pointed filament (Von Frey model variant) was used. This test aims to assess changes in tactile sensitivity in response to a mechanical stimulus as a result of a neural damage. The device consisted of a hand-held force transducer fitted with a sensor tip, through which a pressure with increasing strength is applied against the footpad of the animals hindpaw to assess the threshold of paw withdrawal, that is, the digital analgesimeter records the maximal strength, in grams (g), in which the animal withstands until the paw withdrawal reflex.
Animals were placed in individual acrylic boxes and let to acclimate for 30 min before the beginning of the test. After this period, the thresholds of hindpaw withdrawal were determinded. For each hindpaw, five records of the withdrawal thresholds were made, and the average for each hindpaw was defined as the paw withdrawal threshold control.
as §3, §1

[4] = first day of treatment, 32.25 μmol/kg ip
[5] = male, Swiss, mouse, in vivo, 30 min
[6] = male, Swiss, mouse, in vivo, 60 min
[7] = male, Swiss, mouse, in vivo, 120 min
[8] = after 7 days of 32.25 μmol/kg ip

Work on `Cl.Cl.Fc1ccc(-c2n[nH]cc2CCN2CCCCC2)cc1.O` (hydrate or solvate) [C3, 1-{2-[3-(4-fluorophenyl)-1H-pyrazol-4-yl]ethyl}piperidine dihydrochloride monohydrate] yielded a melting point of 277 to 279 °C.
For `CCOC(=O)C1(c2ccccc2)CCN(CCc2c[nH]nc2-c2ccc(F)cc2)CC1` [C18, Ethyl 1-{2-[3-(4-fluorophenyl)-1H-pyrazol-4-yl]ethyl}-4-phenylpiperidine-4-carboxylate], the “antinociceptive effect, paw withdrawal latency vs post-surgery control” value (from here on “antinociceptive effect … vs post-surgery control”) [1, 4] was “antinociceptive effects in the first day of treatment” and the melting point was 138 to 139.5 °C.
For `Cl.Cl.Fc1ccc(-c2n[nH]cc2CCN2CCOCC2)cc1.O` (hydrate or solvate) [C9, 4-{2-[3-(4-fluorophenyl)-1H-pyrazol-4-yl]ethyl}morpholine dihydrochloride monohydrate], the melting point was 113 to 126 °C (dec.).
For `CC(=O)O.Fc1ccc(-c2ncncc2CCN2CCCCC2)cc1` [C6, 1-{2-[4-(4-fluorophenyl)pyrimidin-5-yl]ethyl}piperidinium acetate with 0.8 water molecules], the “antinociceptive effect … vs post-surgery control” value [1, 4] was “antinociceptive effects in the first day of treatment”.
For `CCN1CCN(CCc2c[nH]nc2-c2ccc(F)cc2)CC1.Cl.Cl.Cl.O.O.O` (hydrate or solvate) [C12, 1-ethyl-4-{2-[3-(4-fluorophenyl)-1H-pyrazol-4-yl]ethyl}piperazine trihydrochloride trihydrate], the melting point was 226 to 237 °C (dec.).
For `Cl.Fc1ccc(-c2nocc2CCN2CCCCC2)cc1` [C5, 1-{2-[3-(4-fluorophenyl)-1,2-oxazol-4-yl]ethyl}piperidine hydrochloride], the “antinociceptive effect … vs post-surgery control” value [1, 4] was “antinociceptive effects in the first day of treatment”, the “Mice residence time on the rotational cylinder” value (from here on “Mice residence time”) (Swiss-type male mice; [5]) was 178.6 s and the “Mice residence time” value (Swiss-type male mice; [6]) was 173.4 s. For the same compound, the “Mice residence time” value (Swiss-type male mice; [7]) was 179.2 s and the “Mice residence time” value (Swiss-type male mice; male, Swiss, mouse, in vivo, ip, 15 min) was 180.0 s.
`Fc1ccc(-c2n[nH]cc2CCN2CCCCC2)cc1` [C1, 1-{2-[3-(4-fluorophenyl)-1H-pyrazol-4-yl]ethyl}piperidine] gave a melting point of 145 to 146 °C.
For `CC(=O)O.OC1(c2ccc(Cl)cc2)CCN(CCc2cncnc2-c2ccc(F)cc2)CC1` [C16, 4-(4-chlorophenyl)-4-hydroxy-1-{2-[4-(4-fluorophenyl)pyrimidin-5-yl]ethyl}piperidinium acetate], the “antinociceptive effect … vs post-surgery control” value [1, 4] was “antinociceptive effects in the first day of treatment”, the “latency increase, statistical significance” value ([1]; first day of treatment, 32.25 μmol/kg ip, p<0.05 or p<0.005) was “the latency increase was statistically significant” and the “animal residence time on the rotational cylinder compared to controls” value (Swiss-type male mice; 15 minutes after administration, 32.25 μmol/kg) was “equal to the time observed for the negative control, and significantly higher than the time observed for the control amitriptyline hydrochloride”. The “Mice residence time” value (Swiss-type male mice; T 15 min after ip administration, 32.25 μmol/kg, 9 rpm, cut off 180 s, mean ± SEM) was 178.6 s, the “Mice residence time” value (Swiss-type male mice; T 30 min after ip administration, 32.25 μmol/kg (diazepam 2 mg/kg), 9 rpm, cut off 180 s, mean ± SEM) was 178.8 s and the “Mice residence time” value (Swiss-type male mice; T 60 min after ip administration, 32.25 μmol/kg (diazepam 2 mg/kg), 9 rpm, cut off 180 s, mean ± SEM) was 150.8 s. For the same compound, the “Mice residence time” value (Swiss-type male mice; T 120 min after ip administration, 32.25 μmol/kg (diazepam 2 mg/kg), 9 rpm, cut off 180 s, mean ± SEM) was 126.3 s.
With `CN(C)CCC=C1c2ccccc2CCc2ccccc21` [amitriptyline hydrochloride, reference compound] the “antinociceptive effect after treatment interruption” value [1, 8] was “the antinociceptive effect was observed only after the first day”, the paw withdrawal latency ([1]; day 7 of treatment, 32.25 μmol/kg ip daily, p<0.005) was “significantly increased” and the “effect on thermal hyperalgesia after treatment interruption” value (rats subjected to SNL [2]; [8]) was “the analgesic effect is not maintained”. For the same compound, the “paw withdrawal latency, thermal hyperalgesia” value (rats subjected to SNL [2]; after 7 days of treatment, 32.25 μmol/kg ip) was “significantly increased”, the “Mice residence time” value (Swiss-type male mice; [5]) was 151.0 s and the “Mice residence time” value (Swiss-type male mice; [6]) was 175.8 s. The “Mice residence time” value (Swiss-type male mice; [7]) was 161.8 s and the “paw withdrawal threshold, mechanical allodynia” value (rats subjected to SNL [3]) was “no significant threshold increase”.
